Key:
Assay type in all cases: in vivo
[1] = tested on: Kochia (Kochia scoparia); experiment: Test A postemergence
How it was run: (§1)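 Each rating is a visual injury score from 0 to 100 given about 10 d after treatment, judged against untreated controls kept alongside in the greenhouse. In loam soil–sand blend, seeds got a preemergence directed soil spray, while postemergence plants were 2 to 10 cm tall at spraying.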

[2] = tested on: Galium (catchweed bedstraw, Galium aparine); experiment: Test A postemergence
How it was run: as §1

[3] = tested on: giant foxtail (Setaria faberii); experiment: Test A postemergence
How it was run: as §1

[4] = tested on: blackgrass (Alopecurus myosuroides); experiment: Test A postemergence
How it was run: as §1

[5] = tested on: corn (Zea mays); experiment: Test A postemergence
How it was run: as §1

[6] = tested on: ryegrass, Italian (Italian ryegrass, Lolium multiflorum); experiment: Test A postemergence
How it was run: as §1

[7] = tested on: barnyardgrass (Echinochloa crus-galli); experiment: Test A postemergence
How it was run: as §1

[8] = tested on: wheat (Triticum aestivum); experiment: Test A postemergence
How it was run: as §1

[9] = tested on: pigweed (Amaranthus retroflexus); experiment: Test A postemergence
How it was run: as §1

[10] = tested on: ragweed (common ragweed, Ambrosia elatior); experiment: Test A postemergence
How it was run: as §1

[11] = tested on: Kochia (Kochia scoparia); experiment: Test A preemergence
How it was run: as §1

[12] = tested on: giant foxtail (Setaria faberii); experiment: Test A preemergence
How it was run: as §1

[13] = tested on: ryegrass, Italian (Italian ryegrass, Lolium multiflorum); experiment: Test A preemergence
How it was run: as §1

[14] = tested on: barnyardgrass (Echinochloa crus-galli); experiment: Test A preemergence
How it was run: as §1

[15] = tested on: pigweed (Amaranthus retroflexus); experiment: Test A preemergence
[16] = tested on: ragweed (common ragweed, Ambrosia elatior); experiment: Test A preemergence
How it was run: as §1

[17] = tested on: barnyardgrass (Echinochloa crus-galli); experiment: Test B flooded paddy test; details: Flood, 250 g ai/ha; for Plant response rating, Barnyardgrass: 0 to 100 scale where 0 is no effect and 100 is complete control, 13 to 15 d
How it was run: (§2)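 Rating scale 0–100 (visual, vs untreated controls) after a 13–15 d greenhouse period; application to the flood layer, 3 cm above soil and maintained; plants at 2-leaf stage when treated.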

[18] = tested on: ducksalad (Heteranthera limosa); experiment: Test B flooded paddy test; details: Flood, 250 g ai/ha; for Plant response rating, Ducksalad: 0 to 100 scale where 0 is no effect and 100 is complete control, 13 to 15 d
How it was run: as §2

[19] = tested on: rice (Oryra sativa); experiment: Test B flooded paddy test; details: Flood, 250 g ai/ha; for Plant response rating, Rice: 0 to 100 scale where 0 is no effect and 100 is complete control, 13 to 15 d
How it was run: as §2

[20] = tested on: sedge, umbrella (small-flower umbrella sedge, Cyperus difformis); experiment: Test B flooded paddy test; details: Flood, 250 g ai/ha; for Plant response rating, Sedge, Umbrella: 13 to 15 d
How it was run: as §2

[21] = 125 g ai/ha, postemergence, visual rating after approx. 10 d, 0 to 100 scale (0 no effect, 100 complete control)
[22] = 500 g ai/ha, postemergence, visual injury, 0 to 100 scale (0 no effect, 100 complete control), approx. 10 d
[23] = 125 g ai/ha, Preemergence, visual injury after approximately 10 d, 0 to 100 scale where 0 is no effect and 100 is complete control
[24] = 500 g ai/ha, preemergence, 0 to 100 scale, 0 = no effect, 100 = complete control
[25] = 0 to 100 scale where 0 is no effect and 100 is complete control
[26] = 125 g ai/ha, Postemergence, visual injury after approximately 10 d, 0 to 100 scale where 0 is no effect and 100 is complete control
[27] = 125 g ai/ha, Preemergence, visual injury rating after approximately 10 d
[28] = 500 g ai/ha, preemergence, visual injury rating about 10 d after treatment, 0 to 100 scale (0 no effect, 100 complete control)
[29] = scale of 0 to 100 where 0 is no effect and 100 is complete control
[30] = Postemergence, 125 g ai/ha, visual injury after approx. 10 d, 0 to 100 scale, 0 no effect, 100 complete control
[31] = Postemergence, 500 g ai/ha, visual injury, 0 to 100 scale (0 no effect, 100 complete control), approx. 10 d
[32] = 500 g ai/ha, preemergence, 0 to 100 scale (0 no effect, 100 complete control)
[33] = Preemergence, 125 g ai/ha, 0 to 100 scale (0 no effect, 100 complete control)
[34] = visually evaluated after 13 to 15 d

CN1CC(c2cc(F)cc(F)c2)C(C(=O)Nc2ccccc2C(F)(F)F)C1=O (centres unmarked) [Compound 647]
Plant response rating, Kochia [1, 21]: 0
Plant response rating, Kochia [1, 22]: 20
Plant response rating, Galium [2, 21]: 20
Plant response rating, Galium [2, 22]: 50
Plant response rating, Foxtail, Giant [3, 21]: 90
Plant response rating, Foxtail, Giant [3, 22]: 90
Plant response rating, Blackgrass [4, 21]: 20
Plant response rating, Blackgrass [4, 22]: 60
Plant response rating, Corn [5, 21]: 10
Plant response rating, Corn [5, 22]: 40
Plant response rating, Ryegrass, Italian [6, 21]: 0
Plant response rating, Ryegrass, Italian [6, 22]: 0
Plant response rating, Barnyardgrass [7, 21]: 80
Plant response rating, Barnyardgrass [7, 22]: 90
Plant response rating, Wheat [8, 21]: 20
Plant response rating, Wheat [8, 22]: 50
Plant response rating, Pigweed [9, 21]: 0
Plant response rating, Pigweed [9, 22]: 0
Plant response rating, Ragweed [10, 21]: 0
Plant response rating, Ragweed [10, 22]: 10
Plant response rating, Kochia [11, 23]: 0
Plant response rating, Kochia [11, 24]: 0
Plant response rating, Foxtail, Giant [12, 23]: 90
Plant response rating, Foxtail, Giant [12, 24]: 100
Plant response rating, Ryegrass, Italian [13, 23]: 30
Plant response rating, Ryegrass, Italian [13, 24]: 30
Plant response rating, Barnyardgrass [14, 23]: 90
Plant response rating, Barnyardgrass [14, 24]: 90
Plant response rating, Pigweed [15, 23]: 0
Plant response rating, Pigweed [15, 24]: 60
Plant response rating, Ragweed [16, 23]: 0
Plant response rating, Ragweed [16, 24]: 40
Plant response rating, Barnyardgrass [17]: 75
Plant response rating, Ducksalad [18]: 90
Plant response rating, Rice [19]: 40
Plant response rating, Sedge, Umbrella [20, 25]: 0

CC(C)Oc1cccc(C2CN(C)C(=O)C2C(=O)Nc2ccccc2C(F)(F)F)c1 (centres unmarked) [Compound 652]
Plant response rating, Kochia [1, 21]: 0
Plant response rating, Kochia [1, 22]: 0
Plant response rating, Galium [2, 21]: 30
Plant response rating, Galium [2, 22]: 50
Plant response rating, Foxtail, Giant [3, 21]: 80
Plant response rating, Foxtail, Giant [3, 22]: 90
Plant response rating, Blackgrass [4, 21]: 60
Plant response rating, Blackgrass [4, 22]: 70
Plant response rating, Corn [5, 21]: 30
Plant response rating, Corn [5, 22]: 60
Plant response rating, Ryegrass, Italian [6, 21]: 50
Plant response rating, Ryegrass, Italian [6, 22]: 70
Plant response rating, Barnyardgrass [7, 21]: 90
Plant response rating, Barnyardgrass [7, 22]: 90
Plant response rating, Wheat [8, 21]: 0
Plant response rating, Wheat [8, 22]: 40
Plant response rating, Pigweed [9, 21]: 0
Plant response rating, Pigweed [9, 22]: 20
Plant response rating, Ragweed [10, 21]: 0
Plant response rating, Ragweed [10, 22]: 0
Plant response rating, Kochia [11, 23]: 0
Plant response rating, Kochia [11, 24]: 30
Plant response rating, Foxtail, Giant [12, 23]: 100
Plant response rating, Foxtail, Giant [12, 24]: 100
Plant response rating, Ryegrass, Italian [13, 23]: 60
Plant response rating, Ryegrass, Italian [13, 24]: 60
Plant response rating, Barnyardgrass [14, 23]: 90
Plant response rating, Barnyardgrass [14, 24]: 90
Plant response rating, Pigweed [15, 23]: 0
Plant response rating, Pigweed [15, 24]: 30
Plant response rating, Ragweed [16, 23]: 0
Plant response rating, Ragweed [16, 24]: 0
Plant response rating, Barnyardgrass [17]: 40
Plant response rating, Ducksalad [18]: 65
Plant response rating, Rice [19]: 0
Plant response rating, Sedge, Umbrella [20, 25]: 0

Cc1ccc([C@H]2CN(C)C(=O)[C@@H]2C(=O)Nc2ccccc2[S+](C)[O-])cc1F (some centres unmarked) [Compound 988]
Plant response rating, Kochia [1, 26]: 10
Plant response rating, Galium [2, 26]: 50
Plant response rating, Foxtail, Giant [3, 26]: 80
Plant response rating, Blackgrass [4, 26]: 30
Plant response rating, Corn [5, 26]: 20
Plant response rating, Ryegrass, Italian [6, 26]: 20
Plant response rating, Barnyardgrass [7, 26]: 80
Plant response rating, Wheat [8, 26]: 30
Plant response rating, Pigweed [9, 26]: 0
Plant response rating, Ragweed [10, 26]: 0
Kochia plant response rating (0 to 100 scale, 0 is no effect, 100 is complete control) [11, 27]: 30
Kochia plant response rating [11, 28]: 80
Foxtail, Giant plant response rating (0 to 100 scale, 0 is no effect, 100 is complete control) [12, 27]: 90
Foxtail, Giant plant response rating [12, 28]: 90
Ryegrass, Italian plant response rating (0 to 100 scale, 0 is no effect, 100 is complete control) [13, 27]: 0
Ryegrass, Italian plant response rating [13, 28]: 20
Barnyardgrass plant response rating (0 to 100 scale, 0 is no effect, 100 is complete control) [14, 27]: 90
Barnyardgrass plant response rating [14, 28]: 90
Pigweed plant response rating (0 to 100 scale, 0 is no effect, 100 is complete control) [15, 27]: 30
Pigweed plant response rating [15, 28]: 40
Ragweed plant response rating (0 to 100 scale, 0 is no effect, 100 is complete control) [16, 27]: 50
Ragweed plant response rating [16, 28]: 80
Barnyardgrass plant response rating [17, 29]: 75
Ducksalad plant response rating [18, 29]: 100
Rice plant response rating [19, 29]: 20
Sedge, Umbrella plant response rating [20, 25]: 0

O=C(Nc1cccc(F)c1F)C1C(=S)NCC1c1ccc(Cl)cc1 (centres unmarked) [Compound 1387]
Plant response rating, Kochia [1, 30]: 0
Plant response rating, Kochia [1, 31]: 50
Plant response rating, Galium [2, 30]: 30
Plant response rating, Galium [2, 31]: 50
Plant response rating, Foxtail, Giant [3, 30]: 60
Plant response rating, Foxtail, Giant [3, 31]: 80
Plant response rating, Blackgrass [4, 30]: 0
Plant response rating, Blackgrass [4, 31]: 40
Plant response rating, Corn [5, 30]: 0
Plant response rating, Corn [5, 31]: 10
Plant response rating, Ryegrass, Italian [6, 30]: 0
Plant response rating, Ryegrass, Italian [6, 31]: 40
Plant response rating, Barnyardgrass [7, 30]: 60
Plant response rating, Barnyardgrass [7, 31]: 80
Plant response rating, Wheat [8, 30]: 0
Plant response rating, Wheat [8, 31]: 0
Plant response rating, Pigweed [9, 30]: 0
Plant response rating, Pigweed [9, 31]: 60
Plant response rating, Ragweed [10, 30]: 0
Plant response rating, Ragweed [10, 31]: 30
Plant response rating, Kochia [11, 32]: 60
Plant response rating, Kochia [11, 33]: 30
Plant response rating, Foxtail, Giant [12, 32]: 90
Plant response rating, Foxtail, Giant [12, 33]: 80
Plant response rating, Ryegrass, Italian [13, 32]: 0
Plant response rating, Ryegrass, Italian [13, 33]: 0
Plant response rating, Barnyardgrass [14, 32]: 90
Plant response rating, Barnyardgrass [14, 33]: 50
Plant response rating, Pigweed [15, 32]: 60
Plant response rating, Pigweed [15, 33]: 0
Plant response rating, Ragweed [16, 32]: 0
Plant response rating, Ragweed [16, 33]: 0
Plant response rating, Barnyardgrass (0 to 100 scale where 0 is no effect and 100 is complete control) [17, 34]: 0
Plant response rating, Ducksalad (0 to 100 scale where 0 is no effect and 100 is complete control) [18, 34]: 0
Plant response rating, Rice (0 to 100 scale where 0 is no effect and 100 is complete control) [19, 34]: 0
Plant response rating, Sedge, Umbrella (0 to 100 scale where 0 is no effect and 100 is complete control) [20, 34]: 0

Source: patent US12077503B2, “Substituted cyclic amides and their use as herbicides” (FMC CORPORATION, priority 2015, dated 2024)
